Results published in patent publication US9463216B2 (priority 2012, dated 2016).

What was measured:
[1] = biological target: recombinant LT (PA + LF) (Bacillus anthracis, UniProt P13423); design: species or system BALB/cJ mice; details: mouse, in vivo
[2] = test system: J774 macrophages and PR230 cells; type: cell-based, chinese hamster (PR230 cells)
[3] = biological target: PA (Bacillus anthracis, UniProt P13423); type: binding, B. anthracis
[4] = test system: PA uptake by J774 macrophages, ANTXR2-expressing (CCHO) and ANTXR2-null (PR230) chinese hamster ovary cells; type: cell-based, chinese hamster (CHO cells)
[5] = biological target: lethal toxin (PA + LF) (Bacillus anthracis, UniProt P13423)
[6] = test system: PA; type: biochemical, B. anthracis

Chain of lethal toxin (PA + LF) (P13423 30-764 limits assumed): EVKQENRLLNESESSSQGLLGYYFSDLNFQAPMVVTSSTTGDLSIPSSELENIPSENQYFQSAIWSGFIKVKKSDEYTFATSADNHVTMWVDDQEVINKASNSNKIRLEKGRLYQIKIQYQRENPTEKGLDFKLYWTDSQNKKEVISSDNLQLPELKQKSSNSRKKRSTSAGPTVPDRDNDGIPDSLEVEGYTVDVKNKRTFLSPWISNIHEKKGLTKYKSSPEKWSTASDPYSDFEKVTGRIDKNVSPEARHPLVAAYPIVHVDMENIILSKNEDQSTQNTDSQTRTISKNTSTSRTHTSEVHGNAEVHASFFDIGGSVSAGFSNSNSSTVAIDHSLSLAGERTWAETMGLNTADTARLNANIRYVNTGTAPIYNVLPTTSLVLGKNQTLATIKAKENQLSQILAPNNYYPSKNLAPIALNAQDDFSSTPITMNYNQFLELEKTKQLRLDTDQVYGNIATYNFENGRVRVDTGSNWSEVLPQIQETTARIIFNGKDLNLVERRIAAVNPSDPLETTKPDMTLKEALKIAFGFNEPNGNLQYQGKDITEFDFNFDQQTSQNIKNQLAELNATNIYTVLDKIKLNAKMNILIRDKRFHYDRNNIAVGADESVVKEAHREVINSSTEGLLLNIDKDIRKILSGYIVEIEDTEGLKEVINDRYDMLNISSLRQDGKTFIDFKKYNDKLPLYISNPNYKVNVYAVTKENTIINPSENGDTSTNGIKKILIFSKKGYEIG
Chain of recombinant LT (PA + LF) (P13423 30-764 limits assumed): as above
Chain of PA (Bacillus anthracis, UniProt P13423) (P13423 30-764 limits assumed): as above

Molecule	protection of mice from LT [1]	form complexes with PA [3]	effect on cell uptake of PA [4]	LT inhibitory activity of metal ion chelates [5]	inhibit LT-mediated cytolysis in bone marrow macrophage cells [5]	inhibition of PA oligomers [5]	effect on PA-binding to ANTXR2 or LF, PA oligomerization, or channel formation in vitro [6]	further results
N[C@@H](CCC(=O)O)C(=O)O [L-Glu, reference compound]	did not protect mice from LT							
bovine serum albumin [reference compound]	did not protect mice from LT							
γ-DPGA [Compound 2]	completely protected	can form complexes with PA	prevent proper cell uptake	only the Fe(III) chelate had LT inhibitory activity	could inhibit	equally inhibited	do not affect	inhibitory activity after treatment with Cap D [1]: abolished the inhibitory activity; binding to J774 macrophages and PR230 cells [2]: equal affinity; binding to Pronase-treated PR230 cells [2]: significantly reduced; formation of co-complexes with PA after pretreatment with Cap D [3]: prevents formation of co-complexes with PA; stimulation of PA internalization after pretreatment with Cap D [4]: eliminates the stimulation of PA internalization
Fe(III) [reference compound]								concentration at which Fe(III) alone may inhibit LT [5]: 10 mM; inhibitory Fe(III) concentration relative to concentrations effective in the Fe(III) co-complexes of compounds 1, 2, and 3 [5]: 10^3-10^4 fold; inhibitory activity of Fe(III) alone [5]: did not possess inhibitory activity
γ-DLPGA [Compound 1]	completely protected	can form complexes with PA	prevent proper cell uptake	only the Fe(III) chelate had LT inhibitory activity	could inhibit	equally inhibited	do not affect	affinity for PA, higher than compound 2 [3]: 10 fold
